Measurements as given in patent publication US20260262643A1, “HERBICIDAL BENZOXAZINES” (FMC CORPORATION, priority 2022, published 2026).

Experiments:
barnyardgrass [1] = experiment: Test C preemergence; format: in vivo, Echinochloa crusgalli; settings: 0 to 100 scale (0 no effect, 100 complete control); for Plant response rating, Barnyardgrass: Preemergence, 500 g ai/ha, visual rating after 10 days; for Barnyardgrass plant response rating: Test C, preemergence, 125 g ai/ha
In short: (§1)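 Seeds in loam–sand blend received preemergence directed soil spray of test chemicals in non-phytotoxic solvent with surfactant; postemergence treatment was applied at one- to two-leaf stage (2–10 cm). After 10 days in greenhouse, injury rated visually versus untreated controls, 0 (no effect) to 100 (complete control).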

blackgrass [2] = experiment: Test C preemergence; format: in vivo, Alopecurus myosuroides; settings: 0 to 100 scale (0 no effect, 100 complete control); for Plant response rating, Blackgrass: Preemergence, 500 g ai/ha, visual rating after 10 days; for Blackgrass plant response rating: Test C, preemergence, 125 g ai/ha
In short: as §1

corn [3] = experiment: Test C preemergence; format: in vivo, Zea mays; settings: 0 to 100 scale (0 no effect, 100 complete control); for Plant response rating, Corn: Preemergence, 500 g ai/ha, visual rating after 10 days; for Corn plant response rating: Test C, preemergence, 125 g ai/ha
In short: as §1

green foxtail [4] = experiment: Test C preemergence; format: in vivo, Setaria viridis; settings: 0 to 100 scale (0 no effect, 100 complete control); for Plant response rating, Foxtail, Green: Preemergence, 500 g ai/ha, visual rating after 10 days; for Foxtail, Green plant response rating: Test C, preemergence, 125 g ai/ha
In short: as §1

kochia [5] = experiment: Test C preemergence; format: in vivo, Bassia scoparia; settings: 0 to 100 scale (0 no effect, 100 complete control); for Plant response rating, Kochia: Preemergence, 500 g ai/ha, visual rating after 10 days; for Kochia plant response rating: Test C, preemergence, 125 g ai/ha
In short: as §1

oat, wild [6] = experiment: Test C preemergence; format: in vivo, Avena fatua; settings: 0 to 100 scale (0 no effect, 100 complete control); for Plant response rating, Oat, Wild: Preemergence, 500 g ai/ha, visual rating after 10 days; for Oat, Wild plant response rating: Test C, preemergence, 125 g ai/ha
In short: as §1

pigweed, palmer [7] = experiment: Test C preemergence; format: in vivo, Amaranthus palmeri; settings: 0 to 100 scale (0 no effect, 100 complete control); for Plant response rating, Pigweed, Palmer: Preemergence, 500 g ai/ha, visual rating after 10 days; for Pigweed, Palmer plant response rating: Test C, preemergence, 125 g ai/ha
In short: as §1

ragweed [8] = experiment: Test C preemergence; format: in vivo, Ambrosia artemisiifolia; settings: 0 to 100 scale (0 no effect, 100 complete control); for Plant response rating, Ragweed: Preemergence, 500 g ai/ha, visual rating after 10 days; for Ragweed plant response rating: Test C, preemergence, 125 g ai/ha
In short: as §1

ryegrass, Italian [9] = experiment: Test C preemergence; format: in vivo, Lolium multiflorum; settings: 0 to 100 scale (0 no effect, 100 complete control); for Plant response rating, Ryegrass, Italian: Preemergence, 500 g ai/ha, visual rating after 10 days; for Ryegrass, Italian plant response rating: Test C, preemergence, 125 g ai/ha
In short: as §1

soybean [10] = experiment: Test C preemergence; format: in vivo, Glycine max; settings: 0 to 100 scale (0 no effect, 100 complete control); for Plant response rating, Soybean: Preemergence, 500 g ai/ha, visual rating after 10 days; for Soybean plant response rating: Test C, preemergence, 125 g ai/ha
In short: as §1

wheat [11] = experiment: Test C preemergence; format: in vivo, Triticum aestivum; settings: 0 to 100 scale (0 no effect, 100 complete control); for Plant response rating, Wheat: Preemergence, 500 g ai/ha, visual rating after 10 days; for Wheat plant response rating: Test C, preemergence, 125 g ai/ha
In short: as §1

barnyardgrass [12] = experiment: Test C postemergence; format: in vivo, Echinochloa crusgalli; settings: 10 days
In short: as §1

blackgrass [13] = experiment: Test C postemergence; format: in vivo, Alopecurus myosuroides; settings: 10 days
In short: as §1

corn [14] = experiment: Test C postemergence; format: in vivo, Zea mays; settings: 10 days
In short: as §1

green foxtail [15] = experiment: Test C postemergence; format: in vivo, Setaria viridis; settings: 10 days
In short: as §1

kochia [16] = experiment: Test C postemergence; format: in vivo, Bassia scoparia; settings: 10 days
In short: as §1

oat, wild [17] = experiment: Test C postemergence; format: in vivo, Avena fatua; settings: 10 days
In short: as §1

pigweed, palmer [18] = experiment: Test C postemergence; format: in vivo, Amaranthus palmeri; settings: 10 days
In short: as §1

ragweed [19] = experiment: Test C postemergence; format: in vivo, Ambrosia artemisiifolia; settings: 10 days
In short: as §1

ryegrass, Italian [20] = experiment: Test C postemergence; format: in vivo, Lolium multiflorum; settings: 10 days
In short: as §1

soybean [21] = experiment: Test C postemergence; format: in vivo, Glycine max; settings: 10 days
In short: as §1

wheat [22] = experiment: Test C postemergence; format: in vivo, Triticum aestivum; settings: 10 days
In short: as §1

galium = experiment: Test C postemergence; format: in vivo, Galium aparine; settings: 10 days
In short: as §1

horseweed = experiment: Test C postemergence; format: in vivo, Erigeron canadensis; settings: 10 days
In short: as §1

barnyardgrass [23] = experiment: Test D flooded paddy test; format: in vivo, Echinochloa crus-galli; settings: 250 g ai/ha, applied to paddy water, visual rating after 13 to 14 days, scale 0 to 100 (0 no effect, 100 complete control)
In short: (§2)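 Seedlings reached the 2-leaf stage, then pots were flooded to 3 cm over the soil surface. Compound was applied into the water, depth was maintained, and plants stayed in the greenhouse 13 to 14 days before visual scoring (0–100) relative to controls.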

ducksalad = experiment: Test D flooded paddy test; format: in vivo, Heteranthera limosa; settings: 250 g ai/ha, applied to paddy water, visual rating after 13 to 14 days, scale 0 to 100 (0 no effect, 100 complete control)
In short: as §2

rice = experiment: Test D flooded paddy test; format: in vivo, Oryza sativa; settings: 250 g ai/ha, applied to paddy water, visual rating after 13 to 14 days, scale 0 to 100 (0 no effect, 100 complete control)
In short: as §2

sedge, umbrella = experiment: Test D flooded paddy test; format: in vivo, Cyperus difformis; settings: 250 g ai/ha, applied to paddy water, visual rating after 13 to 14 days, scale 0 to 100 (0 no effect, 100 complete control)
In short: as §2

[24] = 125 g ai/ha, postemergence, 0 to 100 scale, 0 no effect, 100 complete control
[25] = Postemergence, 500 g ai/ha, visual 0 to 100 scale (0 no effect, 100 complete control)

## Cc1cccc2c1O[C@@H](C)CN2C(=O)c1cccc(-n2cnc(C#N)c2)c1 [Compound 233]
Barnyardgrass [1]
  Plant response rating, Barnyardgrass: 60
  Barnyardgrass plant response rating: 0
Blackgrass [2]
  Plant response rating, Blackgrass: 30
  Blackgrass plant response rating: 10
Corn [3]
  Plant response rating, Corn: 20
  Corn plant response rating: 0
Green foxtail [4]
  Plant response rating, Foxtail, Green: 80
  Foxtail, Green plant response rating: 0
Kochia [5]
  Plant response rating, Kochia: 0
  Kochia plant response rating: 0
oat, wild [6]
  Plant response rating, Oat, Wild: 0
  Oat, Wild plant response rating: 0
pigweed, palmer [7]
  Plant response rating, Pigweed, Palmer: 0
  Pigweed, Palmer plant response rating: 0
Ragweed [8]
  Plant response rating, Ragweed: 70
  Ragweed plant response rating: 0
ryegrass, Italian [9]
  Plant response rating, Ryegrass, Italian: 60
  Ryegrass, Italian plant response rating: 10
Soybean [10]
  Plant response rating, Soybean: 10
  Soybean plant response rating: 0
Wheat [11]
  Plant response rating, Wheat: 0
  Wheat plant response rating: 0
Barnyardgrass [12]; [24]
  Plant response rating, Barnyardgrass: 10
Barnyardgrass [12]; [25]
  Plant response rating, Barnyardgrass: 20
Blackgrass [13]; [24]
  Plant response rating, Blackgrass: 0
Blackgrass [13]; [25]
  Plant response rating, Blackgrass: 40
Corn [14]; [24]
  Plant response rating, Corn: 0
Corn [14]; [25]
  Plant response rating, Corn: 20
Green foxtail [15]; [24]
  Plant response rating, Foxtail, Green: 20
Green foxtail [15]; [25]
  Plant response rating, Foxtail, Green: 20
Kochia [16]; [24]
  Plant response rating, Kochia: 0
Kochia [16]; [25]
  Plant response rating, Kochia: 10
oat, wild [17]; [24]
  Plant response rating, Oat, Wild: 0
oat, wild [17]; [25]
  Plant response rating, Oat, Wild: 20
pigweed, palmer [18]; [24]
  Plant response rating, Pigweed, Palmer: 0
pigweed, palmer [18]; [25]
  Plant response rating, Pigweed, Palmer: 10
Ragweed [19]; [24]
  Plant response rating, Ragweed: 0
Ragweed [19]; [25]
  Plant response rating, Ragweed: 20
ryegrass, Italian [20]; [24]
  Plant response rating, Ryegrass, Italian: 0
ryegrass, Italian [20]; [25]
  Plant response rating, Ryegrass, Italian: 60
Soybean [21]; [24]
  Plant response rating, Soybean: 70
Soybean [21]; [25]
  Plant response rating, Soybean: 80
Wheat [22]; [24]
  Plant response rating, Wheat: 10
Wheat [22]; [25]
  Plant response rating, Wheat: 10
galium; [24]
  Plant response rating, Galium: 50
horseweed; [24]
  Plant response rating, Horseweed: 0
horseweed; [25]
  Plant response rating, Horseweed: 0
Barnyardgrass [23]
  Plant response rating, Barnyardgrass (Flood): 0
ducksalad
  Plant response rating, Ducksalad (Flood): 0
rice
  Plant response rating, Rice (Flood): 0
sedge, umbrella
  Plant response rating, Sedge, Umbrella (Flood): 0

## CCc1ccc(-n2cnc(C(C)C)n2)cc1C(=O)N1C[C@H](C)Oc2c(C)cccc21 [Compound 240]
Barnyardgrass [1]
  Plant response rating, Barnyardgrass: 100
  Barnyardgrass plant response rating: 90
Blackgrass [2]
  Plant response rating, Blackgrass: 90
  Blackgrass plant response rating: 60
Corn [3]
  Plant response rating, Corn: 60
  Corn plant response rating: 70
Green foxtail [4]
  Plant response rating, Foxtail, Green: 100
  Foxtail, Green plant response rating: 100
Kochia [5]
  Plant response rating, Kochia: 100
  Kochia plant response rating: 70
oat, wild [6]
  Plant response rating, Oat, Wild: 90
  Oat, Wild plant response rating: 90
pigweed, palmer [7]
  Plant response rating, Pigweed, Palmer: 100
  Pigweed, Palmer plant response rating: 100
Ragweed [8]
  Plant response rating, Ragweed: 20
  Ragweed plant response rating: 10
ryegrass, Italian [9]
  Plant response rating, Ryegrass, Italian: 100
  Ryegrass, Italian plant response rating: 100
Soybean [10]
  Plant response rating, Soybean: 100
  Soybean plant response rating: 100
Wheat [11]
  Plant response rating, Wheat: 90
  Wheat plant response rating: 60
Barnyardgrass [12]; [24]
  Plant response rating, Barnyardgrass: 40
Barnyardgrass [12]; [25]
  Plant response rating, Barnyardgrass: 80
Blackgrass [13]; [24]
  Plant response rating, Blackgrass: 80
Blackgrass [13]; [25]
  Plant response rating, Blackgrass: 90
Corn [14]; [24]
  Plant response rating, Corn: 60
Corn [14]; [25]
  Plant response rating, Corn: 80
Green foxtail [15]; [24]
  Plant response rating, Foxtail, Green: 80
Green foxtail [15]; [25]
  Plant response rating, Foxtail, Green: 90
Kochia [16]; [24]
  Plant response rating, Kochia: 30
Kochia [16]; [25]
  Plant response rating, Kochia: 90
oat, wild [17]; [24]
  Plant response rating, Oat, Wild: 60
oat, wild [17]; [25]
  Plant response rating, Oat, Wild: 70
pigweed, palmer [18]; [24]
  Plant response rating, Pigweed, Palmer: 90
pigweed, palmer [18]; [25]
  Plant response rating, Pigweed, Palmer: 100
Ragweed [19]; [24]
  Plant response rating, Ragweed: 50
Ragweed [19]; [25]
  Plant response rating, Ragweed: 80
ryegrass, Italian [20]; [24]
  Plant response rating, Ryegrass, Italian: 70
ryegrass, Italian [20]; [25]
  Plant response rating, Ryegrass, Italian: 90
Soybean [21]; [24]
  Plant response rating, Soybean: 100
Soybean [21]; [25]
  Plant response rating, Soybean: 100
Wheat [22]; [24]
  Plant response rating, Wheat: 20
Wheat [22]; [25]
  Plant response rating, Wheat: 50
galium; [24]
  Plant response rating, Galium: 100
galium; [25]
  Plant response rating, Galium: 100
horseweed; [24]
  Plant response rating, Horseweed: 0
horseweed; [25]
  Plant response rating, Horseweed: 70
Barnyardgrass [23]
  Plant response rating, Barnyardgrass (Flood): 35
ducksalad
  Plant response rating, Ducksalad (Flood): 80
rice
  Plant response rating, Rice (Flood): 10
sedge, umbrella
  Plant response rating, Sedge, Umbrella (Flood): 100
